This data set concerns Brain. The experiment in a line: Drug level in rat brain assessed as tissue binding. The data set is classed as ADME, tissue-based.

Results on three compounds are retold here after ChEMBL document CHEMBL1152417, “The identification and optimisation of novel and selective diamide neuropeptide Y Y2 receptor antagonists” (Bioorg Med Chem Lett, 2009).

As to `O=C(Cc1ccccc1)Nc1ccc(N2CCN(C(=O)c3ccccc3)CC2)c(Cl)c1`, the “Brain tissue binding (percent bound)” value is reported as 99%.

Consider `CC(C)(C(=O)Nc1ccc(N2CCN(C(=O)c3ccccc3)CC2)c(Cl)c1)c1ccccc1`, for which the “Brain tissue binding (percent bound)” value is reported as 99.5%.

Consider `O=C(Nc1ccc(N2CCN(C(=O)c3ccccc3)CC2)c(Cl)c1)C(c1ccccc1)c1ccccn1` (racemic), for which the “Brain tissue binding (percent bound)” value is reported as 99.7%.
